These results are taken from patent publication US10292965B2, “Nintedanib diethanesulfonate salt crystal and preparation method and use thereof” (Chia Tai Tianqing Pharmaceutical Group Co., Ltd., priority 2015, dated 2019).

The structures appear in SMILES notation.

Common to all, as to format: physicochemical
A short description of data set [1]: Stability test (influence factors: high-humidity, light irradiation, accelerated test); sample purity measured. The settings on record: for purity of the sample, accelerated test: accelerated test 40° C.±2° C., relative humidity 75%±5%; for purity of the sample, initial value: day 0, initial value; for purity of the sample, high-humidity test: high-humidity 25° C., 92.5% RH; for purity of the sample, light irradiation test: light irradiation 10000 lx±500 lx. The source says: The tests last for 10 days. Samples were taken on days 0, 5 and 10 to measure the purities of the samples so as to determine their stabilities.

The nature of data set [2]: Moisture content after storage under high humidity and accelerated test conditions. The settings on record: high humidity (25° C., 92.5% RH) and accelerated test conditions (40±2° C., 75%±5% RH) for 10 days.
Data set [3] is described as follows: Intrinsic dissolution rate, rotating disk method (USP Chapter 1087). The settings on record: 700 ml 0.1 mol/L hydrochloric acid, 300 rpm, 37° C., detection 287 nm. As to the method:
Intrinsic dissolution rates of the crystalline Form A of nintedanib diethanesulfonate prepared in Example 1 and the crystalline form of nintedanib diethanesulfonate prepared according to WO2012068441 (the existing crystal) were determined by using the intrinsic dissolution rotating disk method in Chapter 1087 of the U.S. Pharmacopeia, and the results are shown in Table 2. Dissolution Medium: 700 ml of 0.1 mol/L hydrochloric acid solution, Rotating Speed: 300 rpm, Detection Wavelength: 287 nm, Medium Temperature: 37° C.

For the molecule `CCS(=O)(=O)O.COC(=O)c1ccc2c(c1)NC(=O)/C2=C(\Nc1ccc(N(C)C(=O)CN2CCN(C)CC2)cc1)c1ccccc1` [The crystalline Form A, nintedanib diethanesulfonate], in data set [1] (day 10), the “purity of the sample, accelerated test” value turned out to be 99.77%; the “purity of the sample, high-humidity test” value amounted to 99.79%; the “purity of the sample, light irradiation test” value is reported as 99.70%. Also, the “purity of the sample, initial value” in data set [1] is recorded as 99.80%. Further, in data set [1] (day 5), the “purity of the sample, high-humidity test” value came out at 99.78% and the “purity of the sample, light irradiation test” value is given as 99.79%. In data set [2] (listed as crystalline Form A of nintedanib diethanesulfonate), the moisture content entry is “essentially unchanged”. In data set [3], the Average dissolution rate was found to be 22.508 µg/mL/min and the Maximum dissolution rate came to 23.344 µg/mL/min.

As for `CCS(=O)(=O)O.COC(=O)c1ccc2c(c1)NC(=O)/C2=C(\Nc1ccc(N(C)C(=O)CN2CCN(C)CC2)cc1)c1ccccc1` [The existing crystal, nintedanib diethanesulfonate], in data set [1] (day 10), the “purity of the sample, accelerated test” value turned out to be 95.10%; the “purity of the sample, high-humidity test” value was 99.67%; the “purity of the sample, light irradiation test” value stood at 99.19%. For the same molecule, the “purity of the sample, initial value” in data set [1] came to 99.78%. In data set [1] (day 5), the “purity of the sample, high-humidity test” value stood at 99.72% and the “purity of the sample, light irradiation test” value is 99.73%. Also, in data set [2], the “character (appearance) after storage” value is listed as “absorbs moisture to become clumping”. Moreover, in data set [2] (listed as crystalline form of nintedanib diethanesulfonate prepared according to WO2012068), the moisture content result was “increases significantly”. In data set [3], this molecule yielded an Average dissolution rate of 13.373 µg/mL/min and a Maximum dissolution rate of 14.689 µg/mL/min.
